The source of these data is patent US11890315B2, “Stable ascorbic acid compositions and methods of using same” (RENOVION, INC., priority 2017, dated 2024).

Data set [1] concerns dF508−/− primary human bronchial epithelial cells. The experiment in a line: Mucociliary transport rate, ASL and CBF by micro-optical coherence tomography (uOCT). The settings on record: isolated components vs PBS control; FIG. 2. It counts as cell-based.
Excerpt: Briefly, primary human bronchial epithelial cells were isolated from the airways of patients with cystic fibrosis and were terminally differentiated. All cells isolated from cystic fibrosis patients were represented by the dF508−/− genotype. […] Micro-optical coherence tomography (uOCT) was used to assess the mucociliary transport rate according to methods described in Liu, L., et al., PLoS One.
As described above in Example 2, primary human bronchial epithelial cells were isolated from the airways of patients with cystic fibrosis, and uOCT was used to assess the mucociliary transport rate according to methods described in Liu, L., et al., PLoS One.
MCT rate was assessed in a mucociliary clearance assay according to the methods in Example 3 above.
For data set [2], the system named is MRSA UAB-3. Put plainly: In vitro MIC against bacterial isolates. In kind it is cell-based, Methicillin-resistant Staphylococcus aureus. Particulars: Anaerobic (+nitrate); 12 hrs. The method, then:
(§1) The MIC for laboratory clinical isolate Pseudomonas aeruginosa (Schroeter) Migula (ATCC BAA-47 (PAO1)) was also tested. The MICs were determined under anaerobic conditions on media supplemented with nitrate, under aerobic conditions supplemented with nitrate, or under ambient conditions.
(§2) The clinical isolates were inoculated in duplicate on agar plates overnight under anaerobic conditions at 36° C.±1.0° C. in a 96-well plate. Laboratory isolates of Burkholderia cepacia were also grown in duplicate overnight under aerobic conditions at 36° C.±1.0° C. in a 96-well plate. […] Ten dilutions for each test solution were examined: 50%, 25%, 12.5%, 6.25%, 3.13%, 1.57%, 0.78%, 0.39%, 0.2%, and 0.1%. The colony isolates were incubated for 12 hours or 24 hours at 36° C.±1.0° C. under anaerobic conditions in media comprising Luria Agar/Broth and nitrate with one of the three test solutions. […] MICs were determined via visual inspection and OD620.

Data set [3] has as its system MRSA UAB-1. Put plainly: In vitro MIC against bacterial isolates. It counts as cell-based, Methicillin-resistant Staphylococcus aureus. The settings on record: Anaerobic (+nitrate); 12 hrs. As for the experimental part:
as §1, §2

Data set [4] concerns Pa BAA-47 (PAO1). The experiment in a line: In vitro MIC against bacterial isolates. In kind it is cell-based, Pseudomonas aeruginosa. Particulars: Anaerobic (+nitrate); 12 hrs. As for the experimental part:
as §1, §2

In data set [5] the test system is Pa UAB-NM-1. Put plainly: In vitro MIC against bacterial isolates. It counts as cell-based, Pseudomonas aeruginosa. The settings on record: Anaerobic (+nitrate); 12 hrs. The method, then: as §1, §2
The test system of data set [6] is Pa UAB-M-2. Put plainly: In vitro MIC against bacterial isolates. In kind it is cell-based, Pseudomonas aeruginosa. Particulars: Anaerobic (+nitrate); 12 hrs. The method, then: as §1, §2
Data set [7] deals with Pa UAB-NM-3. Put plainly: In vitro MIC against bacterial isolates. In kind it is cell-based, Pseudomonas aeruginosa. Particulars: Anaerobic (+nitrate); 12 hrs. The method, then: as §1, §2
The subject of data set [8] is Pa UAB-NM-5. Put plainly: In vitro MIC against bacterial isolates. It counts as cell-based, Pseudomonas aeruginosa. Particulars: Anaerobic (+nitrate); 12 hrs. The method, then:
as §1, §2

A short description of data set [9]: Stability: oxidized glutathione and reduced ascorbic acid after 4 weeks of storage at 5° C. In kind it is physicochemical. The settings on record: reduced ascorbic acid maintained after 4 weeks at 5° C.; pH and atmosphere per formulation. The source says: Oxidized glutathione is associated with the generation of protein-carbonyls via glutathionlyation, which occurs when oxidized glutathione dissociates and attaches to proteins. […] Additionally, when ascorbic acid is oxidized into dehydroascorbate (DHA), DHA can break down and result in the formation of protein adducts in process called ascorbylation (Simpson et al., Biochim biophys Acta 2000; 1501:12-24). […] Specifically, nitrogen-sparged samples were mixed under anaerobic conditions sparged with nitrogen, and the samples were packaged using nitrogen bubbling. Ambient samples were mixed under room air conditions and were not bubbled with nitrogen. The formulations were stored at 5° C. for 4 weeks, and the percent of oxidized glutathione (GSSG) and ascorbic acid (ASC) was measured for each sample according to standard techniques.

The nature of data set [10]: Storage stability about 72 hours at 2-8° C. In kind it is physicochemical. Particulars: −20° C., 5° C., ambient; data not shown. The method, then:
The effects of storage on ascorbic acid compositions including varying amounts of buffer with a consistent glutathione concentration were tested. […] At testing, Formulations 1-9 were evaluated to determine ascorbic acid and reduced and oxidized glutathione concentrations. A standard RP-HPLC method for these analytes was used. The method was validated including specificity, accuracy, repeatability, LOQ, mini linearity, in-vial NPLC sample stability and stability-indicating check with informal forced degradation samples. The pH of each formulation was determined using a pH probe place in a sample of each solution. Results are shown in FIG. 15. ascorbic (ACS) alone was unstable under the conditions tested (−20° C., 5° C., ambient) (data not shown).

Each structure is given as a SMILES string.

For the compound `O=C([O-])O.[Na+]` [HCO3, sodium bicarbonate], in data set [1], the mucociliary transport rate entry is “did not alter the mucociliary transport rate”. Moreover, the MIC in data set [2] is on record as 25%; in data set [3], 25%; in data set [4], 12.5%; in data set [5] it was 12.5%; in data set [6], 12.5%; in data set [7], 12.5%. In data set [8], the MIC came to 12.5%.

Regarding `N[C@@H](CCC(=O)N[C@@H](CS)C(=O)NCC(=O)O)C(=O)O` [glutathione, Glutathione], the mucociliary transport rate result in data set [1] is on record as “did not alter the mucociliary transport rate”.

`O=C1O[C@H]([C@@H](O)CO)C(O)=C1O` [Ascorbic Acid Only, ascorbic acid]: in [9], the “% ASC” value is 77.88%. Moreover, in data set [10], the stability entry is reported as “unstable”.
